Experimental data from paper PMC11093748, “De novo identification of CD4^+ T cell epitopes” (Nature Methods, 2024).
“And” between values parts separate entries of the source, which are not always exact repeats. Equal values may be shown once.

Columns and labels:
Experiment in all cases: I-Ag7 SABR-II library screen, enrichment score
Format in all cases: cell-based, mouse
TCR5 = test system: TCR5
Excerpt: (§1) We then asked whether SABR-IIs could be used to present a library of epitopes for CD4^+ T cell antigen discovery. To that end, we constructed a SABR-II library to present epitopes derived from pancreatic islets in I-Ag7 by curating a list of 4,075 published epitopes from the Immune Epitope Database (iedb.org)[50] and a study by Wan et al.[51] (Supplementary Table 1). Of note, this defined library consisted of unmodified epitopes from endogenous proteins, synthetic mimotopes, deamidated epitopes and hybrid insulin peptides (HIPs) that arise from post-translational fusion and are not genetically encoded in vivo[52],[53]. The epitope library was inserted into the I-Ag7 SABR-II backbone through pooled oligonucleotide synthesis, amplification and ligation-free cloning (Extended Data Fig. 3a). The I-Ag7 SABR-II-library was then expressed in NFAT–GFP Jurkat cells. We confirmed that after sequencing, the library accounted for a mean of 708 reads per epitope (Extended Data Fig. 3b). As a proof of concept, we performed co-incubation assays with Jurkat cells expressing the BDC2.5 TCR and sorted the top 1–2% of GFP^+CD69^+ cells at a rate of ~20 min per replicate with three replicates per TCR. We extracted the genomic DNA from sorted cells, amplified the SABR portion of the integrated proviruses and subjected the amplicons to Illumina sequencing (Extended Data Fig. 3c,d). The 1–2% sort gate represents >50-fold enrichment of cognate epitopes with minimal loss of signal (Extended Data Fig. 3e–h). Sequence reads were aligned to the I-Ag7 SABR-II backbone and the corresponding epitopes were scored based on their read counts. For each TCR under investigation, an enrichment score (ES) was determined for all the epitopes in a library. In each experiment, three replicates of a sort with TCR-expressing Jurkat cells were performed and reads were counted post-sequencing. In addition, three replicates of the unsorted library were also sequenced. A linear regression model was built using the unsorted library counts and used to determine the expected abundance of each epitope in the library. The ES was calculated based on the difference between the measured and the expected abundance of each epitope on a per-TCR basis (Fig. 1e). Based on ES values, two quantitative thresholds were used to determine putative cognate epitopes of a given TCR. A high-confidence zone containing clear outliers with a high ES and a low-confidence zone containing weak outliers with a moderately high ES were determined (Fig. 1e). This two-tiered strategy was used to call putative hits from screens. All the top-scoring epitopes for the BDC2.5 TCR were known BDC2.5 ligands containing the WXRM(D/E) motif (Fig. 1f,g, enriched ligands in red), a well-characterized trait of the BDC2.5 TCR[43],[54]–[56]. Across several independent experiments there was limited variation in ES values for the same TCRs and several epitopes fell into high- or low-confidence zones consistently (Extended Data Fig. 4a). Using a different TCR that was isolated from NOD mice, 4-8Ins[57], which recognized the InsB9:23 epitope ([…]), we observed a similar pattern of ES for cognate epitopes (Extended Data Fig. 4b).
(§2) We performed systematic screening of the cloned TCRs against the I-Ag7 SABR-II library. Several TCRs along with a positive control (such as BDC2.5 or 4-8Ins) were screened individually against the library for each sort (Extended Data Fig. 6a and Supplementary Table 4). High- and low-confidence ES zones for each screened TCR were defined by the ES values of the control TCR’s cognate epitopes. For all putative cognate epitopes, single SABR-IIs were constructed, expressed in NFAT–GFP Jurkat cells and used for co-incubation with the corresponding TCRs. Co-incubation assays that yielded a GFP signal higher than that obtained in assays with no TCR were determined to be positive and the epitopes deemed true cognate ligands (Extended Data Fig. 6b,c). […]

TCR28 = details: TCR_Mean minus PREDICTED_TCR (slope 0.899229, intercept 2.47291e-5 on LIB_Mean), TCR 28, run PZ57
Excerpt: as §1, §2

TCR10A = details: TCR_Mean minus PREDICTED_TCR (from LIB_Mean, SLOPE 0.950997, INTERCEPT 1.20253e-5), PZ47
Excerpt: as §1, §2

TCR35 = details: TCR_Mean minus PREDICTED_TCR (slope 0.982658, intercept 4.25575e-6 on LIB_Mean), TCR 35, run PZ101
Excerpt: as §1, §2

TCR32 = details: TCR_Mean minus PREDICTED_TCR (slope 0.962506, intercept 9.20103e-6 on LIB_Mean), TCR 32, run PZ98
Excerpt: as §1, §2

TCR8 = details: TCR_Mean minus PREDICTED_TCR (from LIB_Mean, SLOPE 0.946603, INTERCEPT 1.31036e-5), PZ47
Excerpt: as §1, §2

TCR18 = test system: TCR18
Excerpt: as §1, §2

TCR21B = details: TCR_Mean minus PREDICTED_TCR (slope 0.954708, intercept 1.11146e-5 on LIB_Mean), TCR 21B, run PZ56
Excerpt: as §1, §2

TCR17C = details: TCR_Mean minus PREDICTED_TCR (from LIB_Mean, SLOPE 0.897918, INTERCEPT 2.50509e-5), PZ52
Excerpt: as §1, §2

TCR34 = details: TCR_Mean minus PREDICTED_TCR (slope 0.916696, intercept 2.04427e-5 on LIB_Mean), TCR 34, run PZ57
Excerpt: as §1, §2

TCR38 = details: I-Ag7 SABR-II library PZ101, CD4 TCR 38; TCR_Mean of 3 replicates minus PREDICTED_TCR (slope 0.968274, intercept 7.78554e-6)
Excerpt: as §1, §2

TCR9 = details: TCR_Mean minus PREDICTED_TCR (from LIB_Mean, SLOPE 0.950453, INTERCEPT 1.21587e-5), PZ47
Excerpt: as §1, §2

TCR12 = details: TCR_Mean minus PREDICTED_TCR (from LIB_Mean, SLOPE 0.937219, INTERCEPT 1.54064e-5), PZ51
Excerpt: as §1, §2

TCR3 = test system: TCR3
Excerpt: as §1, §2

[1] = I-Ag7 library, one biological experiment
[2] = sheet TCR5-PZ44, ES = TCRObserved - TCRPredicted, TCRPredicted = LIBObserved x SLOPE + INTERCEPT, SLOPE 0.90726, INTERCEPT 2.27584e-5
[3] = TCR18, TCR_Mean minus PREDICTED_TCR (from LIB_Mean, SLOPE 0.92089, INTERCEPT 1.94136e-5), PZ52
[4] = sheet TCR3-PZ37, ES = TCRObserved - TCRPredicted, TCRPredicted = LIBObserved x SLOPE + INTERCEPT, SLOPE 0.907522, INTERCEPT 2.2694e-5

Sequence	Enrichment score (TCR5; [1])	Enrichment score (TCR5; [2])	Enrichment score (TCR28)	Enrichment score (TCR10A)	Enrichment score (TCR35)	Enrichment score (TCR32)	Enrichment score (TCR8)	Enrichment score (TCR18; [1])	Enrichment score (TCR18; [3])	Enrichment score (TCR21B)	Enrichment score (TCR17C)	Enrichment score (TCR34)	Enrichment score (TCR38)	Enrichment score (TCR9)	Enrichment score (TCR12)	Enrichment score (TCR3; [1])	Enrichment score (TCR3; [4])
AAVEEGIVAGGGVTLL	2.521e-5 and 3.881e-5	2.521e-5	-8.055e-6	0.0001778	-8.894e-5	3.811e-5	-2.679e-5	-8.9534e-5	-8.9534e-5	-9.242e-5	-3.436e-5	-0.0002018	0.0001517	-0.0001033	-3.643e-5	-0.00015	-0.00015
AEKVRNLPAGHGLNAQ		1.968e-5	9.652e-5	-7.319e-5	-0.0001779	4.971e-5	-5.38e-5	0.0001149	0.0001149	8.732e-6	2.049e-5	6.942e-5	-3.923e-5	2.252e-5	-0.0001285	-2.569e-5	-2.569e-5
AGGVAVIKAGAATEV		-1.203e-5	5.039e-6	-2.727e-5	7.19e-5	9.791e-5	-5.809e-5	-7.134e-5	-7.134e-5	-9.6548e-5	-0.0001062	-0.0001037	4.352e-5	-1.065e-5	-1.359e-5	-3.191e-5	-3.191e-5
AKAAVEEGIVAGGGV		4.678e-5	0.000168	-4.524e-5	-4.28e-5	-4.13e-5	4.499e-5	-0.0001034	-0.0001034	-2.11e-5	-5.707e-5	3.575e-5	-6.1876e-5	0.0002844	-1.697e-5	-0.0001294	-0.0001294
ALVREGLRNVAAGANP		-2.1402e-5	-1.908e-5	-1.221e-5	-4.256e-6	-9.201e-6	-1.329e-5	-1.951e-5	-1.951e-5	-1.174e-5	-2.514e-5	-2.044e-5	-7.786e-6	-9.186e-6	-1.438e-5	-2.328e-5	-2.328e-5
